Article PMC7253177, “Gain of channel function and modified gating properties in TRPM3 mutants causing intellectual disability and epilepsy” (eLife, 2020)

What was measured:
TRPM3 V990M mutant [1] = target: T1, TRPM3 V990M mutant (Homo sapiens, UniProt Q9HCF6, V1015M); assay: Whole-cell patch clamp, HEK293T cells expressing V990M hTRPM3; assay type: cell-based
T1 construct: expressed in transfected cells; host or cells: HEK293T
T1 sequence (Q9HCF6 1-1325 isoform Q9HCF6-10 V990M): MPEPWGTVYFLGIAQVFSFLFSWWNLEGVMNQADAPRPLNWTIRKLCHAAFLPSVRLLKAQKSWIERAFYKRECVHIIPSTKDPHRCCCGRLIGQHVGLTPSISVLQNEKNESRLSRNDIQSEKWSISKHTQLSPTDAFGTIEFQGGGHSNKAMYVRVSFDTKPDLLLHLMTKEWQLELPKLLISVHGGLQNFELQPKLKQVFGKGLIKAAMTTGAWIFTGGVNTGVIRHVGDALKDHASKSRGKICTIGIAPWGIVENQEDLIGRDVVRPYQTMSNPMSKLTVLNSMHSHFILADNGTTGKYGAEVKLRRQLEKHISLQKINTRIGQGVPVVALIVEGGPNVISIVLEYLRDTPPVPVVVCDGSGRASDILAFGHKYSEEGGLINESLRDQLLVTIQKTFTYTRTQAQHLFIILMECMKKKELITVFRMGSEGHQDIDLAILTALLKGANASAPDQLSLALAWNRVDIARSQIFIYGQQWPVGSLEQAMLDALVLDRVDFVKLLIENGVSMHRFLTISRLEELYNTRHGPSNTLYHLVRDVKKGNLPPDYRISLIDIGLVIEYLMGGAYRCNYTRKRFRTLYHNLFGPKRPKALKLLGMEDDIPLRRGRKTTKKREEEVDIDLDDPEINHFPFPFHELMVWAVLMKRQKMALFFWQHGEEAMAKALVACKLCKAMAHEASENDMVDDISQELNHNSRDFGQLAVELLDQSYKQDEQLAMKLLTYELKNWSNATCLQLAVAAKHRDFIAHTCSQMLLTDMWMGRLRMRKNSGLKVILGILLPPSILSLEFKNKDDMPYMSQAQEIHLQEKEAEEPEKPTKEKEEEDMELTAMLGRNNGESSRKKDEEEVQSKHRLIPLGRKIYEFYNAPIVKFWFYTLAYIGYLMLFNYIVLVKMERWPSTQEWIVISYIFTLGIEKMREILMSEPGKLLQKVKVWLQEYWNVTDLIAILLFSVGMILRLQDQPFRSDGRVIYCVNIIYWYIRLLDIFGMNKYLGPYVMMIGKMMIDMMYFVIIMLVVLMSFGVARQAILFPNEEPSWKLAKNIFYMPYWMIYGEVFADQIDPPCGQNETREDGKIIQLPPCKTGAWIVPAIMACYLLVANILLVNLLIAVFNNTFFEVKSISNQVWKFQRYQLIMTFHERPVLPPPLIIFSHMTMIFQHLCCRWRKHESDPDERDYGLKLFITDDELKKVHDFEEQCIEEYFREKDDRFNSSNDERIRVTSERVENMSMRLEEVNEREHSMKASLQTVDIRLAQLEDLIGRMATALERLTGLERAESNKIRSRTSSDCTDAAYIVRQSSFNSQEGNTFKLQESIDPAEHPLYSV
Experimental: (§1) HEK293T cells ([Graham et al., 1977]) were cultured as described previously ([Vriens et al., 2007]) and used up in passage number 14. HEK293T cells were tested for the lack of mycoplasma and transiently transfected with 2 µg of DNA using TransIT transfection reagent (Mirus) 36–48 hr before the measurements. In case of co-cultures a ratio of 1:1 between hTRPM3-YFP WT and mutants-YFP DNA was used.
(§2) All mutants were obtained by the standard PCR overlap extension method using hTRPM3 directly linked to YFP from pCAGGS/IRES-GFP vector ([Vriens et al., 2007]). Accuracy of all mutant sequences was verified by sequencing of the entire DNA constructs.
Standard whole-cell patch-clamp recordings were performed with an EPC-10 amplifier and the PatchMasterPro Software (HEKA Elektronik, Lambrecht, Germany). Current measurements were performed at a sampling rate of 20 kHz and currents were digitally filtered at 2.9 kHz. In all measurements, 70% of the series resistance was compensated. The standard internal solution contained (in mM): 100 CsAsp, 45 CsCl, 10 EGTA, 10 HEPES, 1 MgCl2 (pH 7.2 with CsOH) or 140 potassium gluconate, 5 EGTA, 1 MgCl2, 10 HEPES and 2 NaATP (pH 7.3 with CsOH) for the measurements of Gβγ mediated inhibition and the standard extracellular solution contained (in mM): 150 NaCl, 1 MgCl2, 10 HEPES (pH 7.4 with NaOH). The standard patch pipette resistance was between 2 MΩ and 4 MΩ when filled with pipette solution. In experiments allowing Ca^2+-dependent desensitization of TRPM3, Mg^2+ was replaced by Ca^2+ in the extracellular solution, and Cs^+ was replaced by Na^+ in the pipette solution. […] The chemical ligands were dissolved in bath solution from a stock diluted in DMSO.

TRPM3 V990M mutant [2] = target: T1, TRPM3 V990M mutant; assay: Fura-2-based calcium imaging, HEK293T cells transfected with V990M hTRPM3; assay type: cell-based
Experimental: as §1, §2
Changes in intracellular calcium concentration were monitored using ratiometric Fura-2-based fluorimetry. Cells were loaded with 2 µM Fura-2-acetoxymethyl ester (Alexis Biochemicals) for 30 min at 37°C. Fluorescence was measured during alternating illumination at 340 and 380 nm using Eclipse Ti (Nikon) fluorescence microscopy system, and absolute calcium concentration was calculated from the ratio of the fluorescence signals at these two wavelengths (R = F340/F380) as [Ca^2+]=Km × (R-Rmin)/(Rmax-R), where Km, Rmin and Rmax were estimated from in vitro calibration experiments with known calcium concentrations. The bath solution contained (in mM) 138 NaCl, 5.4 KCl, 2 CaCl2, 2 MgCl2, 10 glucose, and 10 HEPES, pH 7.4. […]

CCC1(c2ccccc2)C(=O)NCNC1=O [primidone]
Block of PS-activated currents (TRPM3 V990M mutant [1]; primidone 25 µM, PS 40 µM, ±80 mV, cells co-expressing µ-opioid receptor): ~ 50% | Effect on basal [Ca2+]i (TRPM3 V990M mutant [2]; primidone 100 µM, isosakuranetin 50 µM, did not fully return to WT level): reduced [Ca^2+]i

pregnenolone sulfate [PS]
PS concentration giving robust calcium responses (as low as) (TRPM3 V990M mutant [2]): 100 nM

Clc1ccccc1C(c1ccccc1)(c1ccccc1)n1ccnc1 [Clt, clotrimazole]
Activation of whole-cell currents in the absence of PS (TRPM3 V990M mutant [1]; Clt 10 µM): induced robust currents
